Patent US4975430A, “CNQX and its analogs as therapeutics for degenerative neural diseases” (The State of Oregon Acting by and Through The State Board …, priority 1989, dated 1990)

Key:
[1] = system: non-NMDA receptor for kainate; assay: kainate-mediated current in dissociated hippocampal neurons (control experiment); format: cell-based, rat; settings: 10 uM CNQX, 20 uM kainate
[2] = system: non-NMDA receptors; settings: U.S. Pat. No. 4,812,458; cited from earlier work
[3] = biological target: glycine binding site (NMDA receptor); assay: 3-H-glycine binding to frontal cortex membranes; settings: 4 nM 3-H-glycine, washed guinea pig frontal cortex membranes, 30 min on ice; read-out: IC50 for displacement of glycine
[4] = system: NMDA receptor; settings: cited from earlier work; for effect on responses produced by NMDA: literature reports (Honore et al., Blake et al., Fletcher, Dryer et al.)
[5] = system: NMDA receptor; assay: NMDA receptor-mediated currents, whole cell patch recordings in dissociated hippocampal neurons; format: cell-based, rat; settings: for effect on NMDA receptor-mediated current: 30 uM NMDA

effect on kainate-mediated current ([1]; 1 uM glycine)	effect of glycine on suppression of kainate-mediated current ([1]; glycine 1000 uM)	IC50 [3]	SMILES	effect on excitation of spinal cord neurons induced by stimulation of non-NMDA receptors [2]	effect on responses produced by NMDA [4]	effect on NMDA receptor-mediated current ([5]; 10 uM CNQX, 1 uM glycine (FIG. 2A))	effect on NMDA receptor-mediated current ([5]; 10 uM CNQX, 100 uM glycine)	effect on NMDA receptor-mediated current ([5]; 30 uM CNQX, 200 uM glycine, reversed by 500 uM NMDA (FIG. 2B))	dependence of CNQX effects on membrane potential ([5]; currents recorded at +40 mv and -40 mV)	glycine potentiation of NMDA receptor-mediated currents ([5]; varying glycine, 10 uM or 30 uM CNQX (FIG. 1))	effect on NMDA concentration response curve ([4]; Birch et al. 1988)	effect on maximal response to NMDA ([4]; high antagonist concentrations, Birch et al. 1988)
complete suppression	no effect on this suppression	5.7 µM	N#Cc1cc2[nH]c(=O)c(=O)[nH]c2cc1[N+](=O)[O-] [CNQX, 6-cyano-7-nitroquinoxaline 2,3-dione]	depress the excitation	little or no effect	suppresses the response	substantially no effect	relatively low suppression	not dependent on membrane potential	complete potentiation is not achieved	–	–
–	–	–	O=c1[nH]c2cc([N+](=O)[O-])c([N+](=O)[O-])cc2[nH]c1=O [DNQX, 6,7-dinitro-quinoxaline-2,3-dione]	depress the excitation	little or no effect	–	–	–	–	–	shift to the right	decrease in maximal response
